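Tested at 5 concentrations; 48 h exposure; 96-well plates; endpoints linearly interpolated, else capped at highest concentration. At the GI50, growth is halved. TGI marks complete inhibition of growth.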
Key:
Experiment in all cases: growth of human tumour cells (NCI), 48 h
SNB-75 CNS = system: SNB-75 CNS
LOX IMVI melanoma = system: LOX IMVI melanoma
BT-549 breast = system: BT-549 breast
HT29 colon = system: HT29 colon
UO-31 renal = system: UO-31 renal
SR leukemia = system: SR leukemia
COLO 205 colon = system: COLO 205 colon
SNB-19 CNS = system: SNB-19 CNS
NCI-H23 lung = system: NCI-H23 lung
KM12 colon = system: KM12 colon

| Compound | GI50 (SNB-75 CNS) [µM] | TGI (SNB-75 CNS) [µM] | GI50 (LOX IMVI melanoma) [µM] | TGI (LOX IMVI melanoma) [µM] | GI50 (BT-549 breast) [µM] | TGI (BT-549 breast) [µM] | GI50 (HT29 colon) [µM] | TGI (HT29 colon) [µM] | GI50 (UO-31 renal) [µM] | TGI (UO-31 renal) [µM] | GI50 (SR leukemia) [µM] | TGI (SR leukemia) [µM] | GI50 (COLO 205 colon) [µM] | TGI (COLO 205 colon) [µM] | GI50 (SNB-19 CNS) [µM] | TGI (SNB-19 CNS) [µM] | GI50 (NCI-H23 lung) [µM] | TGI (NCI-H23 lung) [µM] | GI50 (KM12 colon) [µM] | TGI (KM12 colon) [µM] |
| --- | --- | --- | --- | --- | --- | --- | --- | --- | --- | --- | --- | --- | --- | --- | --- | --- | --- | --- | --- | --- |
| Oc1ccc(NCc2nc3ccccc3[nH]2)cc1 | 18 | 62.5 | 73.9 | > 100 | 50.1 | > 100 | > 100 | > 100 | > 100 | > 100 | 53.8 | > 100 | 69.1 | > 100 | 33.6 | > 100 | 54.5 | > 100 | > 100 | > 100 |
| O=C1c2cc(Cl)ccc2S(=O)(=O)c2c(NCCCNCCO)nc3ccccc3c21 | 2.15 | 9.35 | 1.58 | 2.95 | 3.99 | 14.6 | 1.4 | 2.94 | 1.13 | 2.36 | 0.466 | 5.11 | 1.01 | 2.35 | 3.77 | 14.4 | 1.77 | 4.4 | 1.59 | 3.3 |
| OCc1c[nH]c2ccccc12 | 24.2 | > 100 | 16.2 | 32.7 | 28.9 | 73.3 | 24 | 54.6 | 6.29 | 50.9 | 30.2 | 77.4 | 16 | 35.1 | 33 | > 100 | 19.5 | 48.1 | 16 | 37.2 |
| CCOc1cc2c(Cl)ncnc2c(OCC)c1OCC | 3.11 | 15.9 | 3.39 | 10 | 4.82 | 14.5 | 7.59 | 32.9 | 8.45 | 23.6 | 1.18 | 4.31 | 12.2 | 25.5 | 8.8 | 21.4 | 7.71 | 24.2 | 4.96 | 16.4 |
| C[C@@H]1OC(O)[C@@H](F)[C@H](O)[C@@H]1O (stereo partly drawn) | > 100 | > 100 | > 100 | > 100 | > 100 | > 100 | > 100 | > 100 | > 100 | > 100 | > 100 | > 100 | > 100 | > 100 | > 100 | > 100 | > 100 | > 100 | > 100 | > 100 |
| CC[C@@]1(O)C(=O)OCc2c1cc1n(c2=O)Cc2c-1nc1cc3c(cc1c2CCl)OCO3 | < 0.01 | 2.08 | < 0.01 | 0.426 | 0.106 | 3.99 | 0.0271 | > 22.3 | < 0.01 | 0.756 | < 0.01 |  | 1.15 | 3.4 | < 0.018 | > 100 | < 0.01 | < 0.0153 | 0.181 | 1.88 |
| N#Cc1ccc(O)c(C2=NCC(c3cccc(Oc4ccccc4)c3)O2)c1 (stereo not drawn) | 1.08 | > 100 | 0.42 | 12.7 | 1.96 | 17.8 | 5.41 | 41.6 | 0.449 | 2.75 | 0.933 | > 100 | 3.13 | 15.6 | 1.39 | > 100 | 1.27 | > 100 | 0.687 | 23.1 |
| CCCn1cnc2c(SCc3ccccc3Cl)nc(N)nc21 | 19.7 | 86 | 4.86 | 20.3 | 13.7 | 44 | 7.59 | > 100 | 10.8 | 63.5 | 2.23 | 14.2 | 10.7 | > 100 | 25.8 | > 100 | 30 | > 100 | 15.3 | > 100 |
| CS(=O)(=O)c1ccc([C@H]2O[C@@H](CO)C[C@]2(O)c2ccc(S(C)(=O)=O)cc2)cc1 | > 100 | > 100 | > 100 | > 100 | > 100 | > 100 | > 100 | > 100 | > 100 | > 100 | > 100 | > 100 | > 100 | > 100 | > 100 | > 100 | > 100 | > 100 | > 100 | > 100 |
| COc1cc(C2=C(c3ccccc3)COC2=O)cc(OC)c1OC | > 100 | > 100 | 18.6 | > 100 | 33.9 | > 100 | 3.13 | 97.5 | 7.77 | > 49.9 |  | 0.295 | 0.834 | 6.69 | 4.42 | > 100 | 2.41 | > 27.7 | 0.593 | > 31.7 |
| CC1(C)OC2[C@@H](CNC(=O)NC(=O)NC(=O)CI)O[C@@H](n3cnc4c(NC(=O)Nc5ccccc5)ncnc43)[C@H]2O1 (stereo partly drawn) | 6.62 | 13.3 | 0.907 | 1.74 | 7.83 | 14.7 | 3.96 | 12.2 | 1.34 | 4.27 | 0.954 | 2.3 | 6.44 | 14.5 | 27.1 | > 50 | 7.46 | 16.7 | 15.8 | > 50 |

From PubChem BioAssay (NCI)
